Here are results for 10 compounds from patent US5859030A, “Substituted arylalkylthioalkylthiopyridines for use in the control of helicobacter bacteria” (BYK Gulden Lomberg Chemische Fabrik GmbH, priority 1994, dated 1999).

≈ marks a conversion by molar mass, not a printed value. Structures can show the parent of a compound that is named as a salt.

The test system of the test is Helicobacter pylori. Put plainly: Activity against Helicobacter pylori (agar growth inhibition, methodology of Iwahi et al.). Type of test: cell-based. The settings on record: 96 h, Columbia agar (Oxoid), growth period of 4 days, read-out: approx. MIC50. An excerpt: The compounds of the formula I were investigated regarding their activity against Helicobacter pylori following the methodology described by Tomoyuki Iwahi et al. (Antimicrobial Agents and Chemotherapy, 1991, 490-496) using Columbia agar (Oxoid) and with a growth period of 4 days. The approx. MIC 50 values listed in the following Table A resulted here for the compounds investigated (the numbers of the compounds given agree with the example numbers in the description).
Usually MIC50 stands for the lowest concentration that inhibits either 50% of growth or 50% of the strains tested, depending on the study. `Cc1c(SCCOc2ccccc2)ccnc1CSc1nc2ccccc2[nH]1` [Compound 1]: the MIC50 is ~0.05 µg/mL (≈ 0.123 µM).
The result for `Cc1c(SCCCCOc2ccccc2)ccnc1CSc1nc2ccccc2[nH]1` [Compound 2] reads ~0.1 µg/mL (≈ 0.23 µM); that for `Cc1ccc(CSCCSc2ccnc(CSc3nc4ccccc4[nH]3)c2C)cc1` [Compound 3, 2-{[[3-Methyl-4-[5-(4-methylphenyl)-1,4-dithia-pent-1-yl]-2-pvridinyl]methyl]thio}-1 H-benzimidazole], ~0.05 µg/mL (≈ 0.111 µM).
For `Cc1c(SCCCSC(=S)N(C)C)ccnc1CSc1nc2ccccc2[nH]1` [Compound 4, 2-{[[4-[3-Dimethvldithiocarbamoylpropylthio]-3-methyl-2-pyridinyl]methyl]thio}1 H-benzimidazole] the value was ~0.05 µg/mL (≈ 0.111 µM).
As for `Cc1c(SCCCSCc2ccco2)ccnc1CSc1nc2ccccc2[nH]1` [Compound 5, 2-{[[4-[(6-Furan-2-yl)-1,5-dithiahex-1-yl]-3-methyl-2-pyridinyl]methyl]thio}-1 H-benzimidazole], the MIC50 is ~0.05 µg/mL (≈ 0.113 µM).
In the case of `Cc1c(SCCCSCc2ccc(CN(C)C)o2)ccnc1CSc1nc2ccccc2[nH]1` [Compound 6, trihydrochloride], the MIC50 is ~0.05 µg/mL.
As for `Cc1scnc1CCSCCCSc1ccnc(CSc2nc3ccccc3[nH]2)c1C.Cl.Cl.Cl` [Compound 7, 2-{[[3-Methyl-4-[7-(5-methylthiazol-4-yl)-1,5 dithiahept-1-yl]-2-pyridinyl]methyl]thio}-1 H-benzimidazole trihydrochloride], the MIC50 was ~0.05 µg/mL.
Regarding `Cc1c(SCCCSc2nc3ccccc3s2)ccnc1CSc1nc2ccccc2[nH]1` [Compound 10, 2-{[[4-[(5-Benzothiazol-2-yl)-1,5-dithiapent-1-yl]-3-methyl-2-pyridinyl]methyl]thio}-1 H-benzimidazole], the MIC50 was ~0.1 µg/mL (≈ 0.202 µM).
For `Cc1c(SCCCSc2nc3ccccc3o2)ccnc1CSc1nc2ccccc2[nH]1` [Compound 11, 2-{[[4-[(5-Benzoxazol-2-yl)-1,5-dithiapent-1-yl]-3-methyl-2-pyridinyl]methyl]thio}1 H-benzimidazole] the value was ~0.1 µg/mL (≈ 0.209 µM); for `Cc1c(SCCCSc2ccncc2)ccnc1CSc1nc2cccnc2[nH]1` [Compound 14], ~0.1 µg/mL (≈ 0.227 µM).
